Results reported in patent US11987540B2, “Crystalline solids of 3-palmitoyl-amido-1,2-propanediol and 3-palmitoyl-amido-2-hydroxy-1-dimethoxytriphenylmethylether-propane and methods of making and using the same” (Geron Corporation, priority 2019, dated 2024).

Key:
[1] = Solubility (dissolution) of the new crystalline polymorph used as substrate; assay type: physicochemical; conditions: polymorph from THF, 2-methyl-THF or DCM with triethylamine, heat/cool crystallization
Experimental: Crystalline solids were identified as a new polymorph of 3-palmitoyl-amido-1,2-propanediol using THF, 2-methyl-THF or DCM with triethylamine during a heat/cool induced crystallization. The heat/cool crystallization included solubilizing 3-palmitoyl-amido-1,2-propanediol in a solution of THF, and heating and maintaining the composition at 50° C. overnight. For 2-methyl-THF or DCM, the solution with palmitoyl-amido-1,2-propanediol was heated to 60° C. overnight to produce a solution. After cooling the samples back to 30° C., crystalline solids formed as slurries in the solutions of THF, 2-methyl-THF and DCM.

[2] = Screening of the solubility in various solvents and solvent mixtures; assay type: physicochemical
Experimental: A screening of the solubility of 3-palmitoyl-amido-1,2-propanediol was conducted with various solvents and solvent mixtures. Tetrahydrofuran (THF), 2-methyl-THF, dichloromethane (DCM), N-methyl-2-pyrrolidone (NMP), dimethylacetamide (DMAc), toluene, 2-methylbutan-2-ol (tAmOH), isopropylacetate (iPrOAc), dimethylsulfoxide (DMSO) and dimethylformamide (DMF) were identified as solvents for use in the studies. The effect of triethylamine on the solubility was also evaluated.

[3] = tested on: cancer cell lines and human tumors; conditions: multitude of different cancer cell lines and human tumors; cited from earlier work
telomerase = conditions: cited from earlier work
myelofibrosis = conditions: cited from earlier work
[4] = tested on: template region of the RNA component of telomerase; conditions: cited from earlier work

solubility of the polymorph [1]	effect of triethylamine on the solubility ([2]; in the screened solvents (THF, 2-methyl-THF, DCM, NMP, DMAc, toluene, tAmOH, iPrOAc, DMSO, DMF))	solubility ([2]; solvent dimethylacetamide (DMAc))	solubility ([2]; solvent dimethylformamide (DMF))	solubility ([2]; solvent dimethylsulfoxide (DMSO))	Compound	cell proliferation [3]	telomerase activity (telomerase)	bone marrow fibrosis (myelofibrosis; patients with myelofibrosis in complete remission)	clinical remission (myelofibrosis; patients with myelofibrosis)	binding affinity [4]
faster solubility	small effect	moderate solubility	moderate solubility	moderate solubility	CCCCCCCCCCCCCCCC(=O)NCC(O)CO (stereo not shown) [3-palmitoyl-amido-1,2-propanediol]					
					Imetelstat	effective against cell proliferation	inhibits telomerase activity	reversal of bone marrow fibrosis	complete clinical remissions in certain patients	high affinity
